# What was measured:
# [1] = test system: adjuvant-induced arthritis rats; experiment: Adjuvant-induced arthritis, therapeutic and prophylactic model; assay type: in vivo, rat
# Protocol: The adjuvant-induced arthritis model is a representative chronic inflammation model caused in rats, and it is widely used for pharmacological evaluation of antiinflammatory drugs and antirheumatic drugs. Accordingly, effects of Compound (I) and Compound (II) were examined in both therapeutic and prophylactic model. In the therapeutic model, the difference of the volume of a hind leg before and after the dosed period was calculated to examine edema suppression effect by the drug administration and the change of edema volume was examined. In the prophylactic model, the volume of a hind paw was measured over time during the dosed period and the effect of the drug for a long term period was examined. Although the hind paw volume or the edema volume was used as the index of efficacy evaluation, the edema volume means the increment from the normal volume of the hind paw which was not sensitized with the adjuvant, and therefore, the both indices can be used as approximately the same meaning.
# A liquid paraffin suspension (1 mg/200 μl) of Mycobacterium butyricum (adjuvant) was subcutaneously injected at the tarsal part of the right hind paw of SD or Lewis rats (both male, six-week old) to cause arthritis. In the therapeutic model, 0.5% methylcellulose suspension of Compound (I) or Compound (II) which was prepared so that the dose was 1 ml per 100 g body weight was orally administered once a day for consecutive five days from the 17th day after the injection of the adjuvant. An indomethacin suspension prepared in the similar way was administered as the positive control. The volume of the hind paws was measured respectively for the right and the left by water replacement method just before the administration and in five hours after the last administration and the difference in the values just before the administration and in five hours after the last administration was calculated and assumed as the change in the edema volume. In the prophylatic model, the compounds were administered once a day for consecutive 21 days after the day when the adjuvant was injected. The volume of the right and left hind paws was measured by water replacement method every other day. In the prophylactic model of Compound (II), a suspension of D-penicillamine, an antirheumatic drug, was administered in the same way as a control.
# [2] = test system: adjuvant-induced arthritis rats; experiment: Combination effect on adjuvant-induced arthritis (Example 18); assay type: in vivo, rat; details: only Compound (I) 10 mg/kg oral 12 days from day 10
# Protocol: Combination effect with Compound (I) and DMARDs (methotrexate) was examined in the same way as in Example 17.
# Administration of a DMARD (methotrexate (0.060 mg/kg or 0.045 mg/kg; 0.5% methylcellulose suspension)) to the rat in which adjuvant-induced arthritis was caused in the same way as in Example 17 was started on the day when the adjuvant was injected and continued once a day for consecutive 21 days. Compound (I) (10 mg/kg) was orally administered singly or in combination once a day for consecutive 12 days from the 10 days after the sensitization. The volume of the left hind paw was measured by water replacement method every other day.
# [3] = test system: adjuvant arthritis rats; details: reported in Patent Documents 3, 4 and Non-Patent Documents 3 to 5; cited from earlier work
# [4] = test system: collagen-induced arthritis rats; details: reported in Patent Document 3 and Non-Patent Documents 3 to 5; cited from earlier work
compound,measurement,setting,value
"C[C@@H](c1ccc(-c2ccccc2)c(F)c1)c1cc(/N=C(/N)N2CCOCC2)on1 [Compound (I), 3-[(1S)-1-(2-fluorobiphenyl-4-yl)ethyl]-5-{[amino(morpholin-4-yl)methylene]amino}isoxazole]","p, left hind paw volume (AUC value), Williams's multiple comparison","[1]; prophylactic model, 20 mg/kg",< 0.05
same,hind paw volume / edema volume,"[1]; prophylactic model, oral once a day for 21 days, Compound (I) 2.5 to 80 mg/kg, Compound (II) 50 mg/kg, FIGS. 8 and 9",remarkable edema suppressing effect
same,change of edema volume of hind paw,"[1]; therapeutic model, oral once a day for five days from 17th day, Compound (I) 2.5 to 80 mg/kg, Compound (II) 10 to 50 mg/kg, FIGS. 6 and 7",remarkable edema suppressing effect
same,onset ratio and volume of left hind paw,[2],very little effect
same,effects on adjuvant arthritis rats,[3],anti-arthritis effects
same,effects on collagen-induced arthritis rats,[4],anti-arthritis effects
